Laboratory results as given in patent publication US11560385B2, “Proteasome activity enhancing compounds” (Proteostasis Therapeutics, Inc., priority 2018, dated 2023).
pIC50: −log10 of the molar value.

Target: USP14 (Homo sapiens (Human), UniProt P54578)
Experiment: Usp14 inhibition assay (Example 57B, B-series compounds)
Type: biochemical
Conditions: IC50 class; average value from a minimum of two experimental determinations
From the text: Example 57B: Usp14 Inhibition Assay
The IC50 values in the Table below represent the average value from a minimum of two experimental determinations.

USP14, sequence (P54578 whole entry, looked up): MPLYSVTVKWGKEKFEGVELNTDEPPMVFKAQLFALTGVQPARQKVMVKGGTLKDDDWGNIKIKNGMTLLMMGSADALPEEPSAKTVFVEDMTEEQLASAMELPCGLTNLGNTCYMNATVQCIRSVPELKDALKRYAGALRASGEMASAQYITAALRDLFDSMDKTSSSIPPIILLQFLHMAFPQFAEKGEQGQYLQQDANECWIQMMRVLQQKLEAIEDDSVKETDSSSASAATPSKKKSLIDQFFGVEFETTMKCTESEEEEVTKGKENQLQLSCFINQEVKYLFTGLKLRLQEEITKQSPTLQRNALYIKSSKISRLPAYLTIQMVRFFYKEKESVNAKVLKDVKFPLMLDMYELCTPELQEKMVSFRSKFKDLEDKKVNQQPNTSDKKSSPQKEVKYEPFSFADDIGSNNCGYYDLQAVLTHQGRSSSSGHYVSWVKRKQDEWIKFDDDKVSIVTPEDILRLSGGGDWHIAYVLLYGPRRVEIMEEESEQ

SMILES	pIC50
Cc1cc(C(=O)CN2C3CC4CC2CC(O)(C4)C3)c(C)n1-c1ccc(C#N)cc1 [Example 81B, 4-(3-(2-((5s,7s)-5-Hydroxy-2-azaadamantan-2-yl)acetyl)-2,5-dimethyl-1H-pyrrol-1-yl)benzonitrile]	6.30 to 7.30
Cc1c(C(=O)CN2[C@@H]3CC[C@H]2[C@@H](C)C3)cc(CC2COC2)n1-c1ccc(C#N)cc1 (racemic) [Example 53B, (±)-4-(2-Methyl-3-(2-((1R,2R,4S)-2-methyl-7-azabicyclo[2.2.1]heptan-7-yl)acetyl)-5-(oxetan-3-ylmethyl)-1H-pyrrol-1-yl)benzonitrile]	> 7.30
Cc1c(C(=O)CN2[C@@H]3CC[C@H]2[C@@H](O)C3)cc(CC2CC(C)(C)C2)n1-c1ccc(C#N)cc1 (racemic) [Example 134B, (±)-4-(5-((3,3-Dimethylcyclobutyl)methyl)-3-(2-((1R,2R,4S)-2-hydroxy-7-azabicyclo[2.2.1]heptan-7-yl)acetyl)-2-methyl-1H-pyrrol-1-yl)benzonitrile]	> 7.30
Cc1c(C(=O)CN2[C@@H]3CC[C@H]2[C@@H](O)C3)cc(C2CCCCC2)n1-c1ccc(C#N)cc1 (racemic) [Example 111B, (±)-4-(5-Cyclohexyl-3-(2-((1R,2R,4S)-2-hydroxy-7-azabicyclo[2.2.1]heptan-7-yl)acetyl)-2-methyl-1H-pyrrol-1-yl)benzonitrile]	6.30 to 7.30
Cc1cc(C(=O)CN2C3CCC2(C(C)O)CC3)c(C)n1-c1ccc(C#N)cc1 (racemic) [Example 143B, (±)-4-(3-(2-(1-((R)-1-Hydroxyethyl)-7-azabicyclo[2.2.1]heptan-7-yl)acetyl)-2,5-dimethyl-1H-pyrrol-1-yl)benzonitrile]	6.30 to 7.30
Cc1c(C(=O)CN2C3CCC2[C@@H](O)C3)cc(C2CCC2)n1-c1ccc(C#N)cc1 (mixture of isomers) [Example 108B, (±)-4-(5-Cyclobutyl-3-(2-((2R)-2-hydroxy-7-azabicyclo[2.2.1]heptan-7-yl)acetyl)-2-methyl-1H-pyrrol-1-yl)benzonitrile]	> 7.30
Cc1c(C(=O)CN2C3CCC2[C@@H](O)C3)cc(CC[Si](C)(C)C)n1-c1ccc(C#N)cc1 (mixture of isomers) [Example 50B, (±)-4-(3-(2-((2R)-2-Hydroxy-7-azabicyclo[2.2.1]heptan-7-yl)acetyl)-2-methyl-5-(2-(trimethylsilyl)ethyl)-1H-pyrrol-1-yl)benzonitrile]	6.30 to 7.30
Cc1c(C(=O)CN2C3CCC2C(O)C3)cc([C@@H](C)C2CCC2)n1-c1ccc(C#N)cc1 (mixture of isomers) [Example 150B, (±)-4-(5-((S)-1-Cyclobutylethyl)-3-(2-((2R)-2-hydroxy-7-azabicyclo[2.2.1]heptan-7-yl)acetyl)-2-methyl-1H-pyrrol-1-yl)benzonitrile]	6.30 to 7.30
Cc1cc(C(=O)CN2[C@@H]3CC[C@H]2[C@](O)(C(F)(F)F)C3)c(C)n1-c1ccc(C#N)cc1 (racemic) [Example 73B, (±)-4-(3-(2-((1R,2R,4S)-2-Hydroxy-2-(trifluoromethyl)-7-azabicyclo[2.2.1]heptan-7-yl)acetyl)-2,5-dimethyl-1H-pyrrol-1-yl)benzonitrile]	< 6.30
Cc1c(F)c(C(=O)CN2[C@@H]3CC[C@H]2[C@@H](C)C3)c(C)n1-c1ccc(C#N)cc1 (racemic) [Example 101B, (±)-4-(3-Fluoro-2,5-dimethyl-4-(2-((1S,2S,4R)-2-methyl-7-azabicyclo[2.2.1]heptan-7-yl)acetyl)-1H-pyrrol-1-yl)benzonitrile]	6.30 to 7.30
Cc1c(C(=O)CN2C3CCC2[C@@H](O)C3)cc(CCCn2cccn2)n1-c1ccc(C#N)cc1 (mixture of isomers) [Example 24B, (±)-4-(5-(3-(1H-Pyrazol-1-yl)propyl)-3-(2-((2R)-2-hydroxy-7-azabicyclo[2.2.1]heptan-7-yl)acetyl)-2-methyl-1H-pyrrol-1-yl)benzonitrile]	6.30 to 7.30
Cc1nc(-c2cc(C(=O)CN3[C@@H]4CC[C@H]3[C@@H](O)C4)c(C)n2-c2ccc(C#N)cc2)cs1 (racemic) [Example 144B, (±)-4-(3-(2-((1R,2R,4S)-2-Hydroxy-7-azabicyclo[2.2.1]heptan-7-yl)acetyl)-2-methyl-5-(2-methylthiazol-4-yl)-1H-pyrrol-1-yl)benzonitrile]	6.30 to 7.30
Cc1cc(C(=O)CN2[C@H]3CCC[C@@H]2[C@H](O)C3)c(C)n1-c1ccc(C#N)cc1 (racemic) [Example 82B, (±)-4-(3-(2-((1S,5R,6R)-6-Hydroxy-8-azabicyclo[3.2.1]octan-8-yl)acetyl)-2,5-dimethyl-1H-pyrrol-1-yl)benzonitrile]	6.30 to 7.30
Cc1c(C(=O)CN2[C@@H]3CC[C@@H]2CC(O)C3)cc(CCCCS(C)(=O)=O)n1-c1ccc(C#N)cc1 (stereo partly drawn) [Example 7B, 4-(3-(2-((1R,3r,5S)-3-Hydroxy-8-azabicyclo[3.2.1]octan-8-yl)acetyl)-2-methyl-5-(4-(methylsulfonyl)butyl)-1H-pyrrol-1-yl)benzonitrile]	> 7.30
Cc1c(C(=O)CN2C3CCC2[C@@H](O)C3)cc(C#CCCC#N)n1-c1ccc(C#N)cc1 (mixture of isomers) [Example 10B, (±)-4-(5-(4-Cyanobut-1-yn-1-yl)-3-(2-((2R)-2-hydroxy-7-azabicyclo[2.2.1]heptan-7-yl)acetyl)-2-methyl-1H-pyrrol-1-yl)benzonitrile]	> 7.30
Cc1c(C(=O)CN2[C@@H]3CC[C@H]2[C@@H](O)C3)cc(/C=C/Cn2cccn2)n1-c1ccc(C#N)cc1 (racemic) [Example 27B, (±)-4-(5-((E)-3-(1H-Pyrazol-1-yl)prop-1-en-1-yl)-3-(2-((1S,2S,4R)-2-hydroxy-7-azabicyclo[2.2.1]heptan-7-yl)acetyl)-2-methyl-1H-pyrrol-1-yl)benzonitrile]	> 7.30
Cc1c(C(=O)CN2C3CCC2[C@@H](O)C3)c(C(F)(F)F)c(C)n1-c1ccc(C#N)cc1 (mixture of isomers) [Example 79B, (±)-4-(3-(2-((2R)-2-Hydroxy-7-azabicyclo[2.2.1]heptan-7-yl)acetyl)-2,5-dimethyl-4-(trifluoromethyl)-1H-pyrrol-1-yl)benzonitrile]	< 6.30
Cc1cc(C(=O)CN2C3CCC2[C@@H](O)C3)c(C)n1-c1cc(F)c(Cl)c(F)c1 (mixture of isomers) [Example 118B, (±)-1-(1-(4-Chloro-3,5-difluorophenyl)-2,5-dimethyl-1H-pyrrol-3-yl)-2-((2R)-2-hydroxy-7-azabicyclo[2.2.1]heptan-7-yl)ethan-1-one]	< 6.30
Cc1c(C(=O)CN2C3CCC2[C@@H](O)C3)cc(C2CC(F)C2)n1-c1ccc(C#N)cc1 (mixture of isomers) [Example 132B, (±)-4-(5-(3-Fluorocyclobutyl)-3-(2-((2R)-2-hydroxy-7-azabicyclo[2.2.1]heptan-7-yl)acetyl)-2-methyl-1H-pyrrol-1-yl)benzonitrile]	> 7.30
Cc1c(C(=O)CN2C3CCC2[C@@H](O)C3)cc(CCCCS(C)(=O)=O)n1-c1ccc(C#N)cc1 (mixture of isomers) [Example 8B, (±)-4-(3-(2-((1R,2R,4S)-2-Hydroxy-7-azabicyclo[2.2.1]heptan-7-yl)acetyl-2-methyl-5-(4-(methylsulfonyl)butyl)-1H-pyrrol-1-yl)benzonitrile]	> 7.30
Cc1cc(C(=O)CN2[C@@H]3CC[C@H]2[C@@](C)(O)C3)c(C)n1-c1ccc(C#N)cc1 (racemic) [Example 71B, (±)-4-(3-(2-((1R,2R,4S)-2-Hydroxy-2-methyl-7-azabicyclo[2.2.1]heptan-7-yl)acetyl)-2,5-dimethyl-1H-pyrrol-1-yl)benzonitrile]	< 6.30
CSCCCCCc1cc(C(=O)CN2[C@@H]3CC[C@H]2[C@@H](O)C3)c(C)n1-c1ccc(C#N)cc1 (racemic) [Example 38B, (±)-4-(3-(2-((1R,2R,4S)-2-Hydroxy-7-azabicyclo[2.2.1]heptan-7-yl)acetyl)-2-methyl-5-(5-(methylthio)pentyl)-1H-pyrrol-1-yl)benzonitrile]	> 7.30
Cc1cc(C(=O)CN2C3CCC2(C(=O)O)CC3)c(C)n1-c1ccc(C#N)cc1 [Example 127B, 7-(2-(1-(4-Cyanophenyl)-2,5-dimethyl-1H-pyrrol-3-yl)-2-oxoethyl)-7-azabicyclo[2.2.1]heptane-1-carboxylic Acid]	< 6.30
Cc1c(F)c(C(=O)CN2C3CCC2[C@@H](O)C3)c(C)n1-c1ccc(C#N)c(F)c1 (mixture of isomers) [Example 120B, (±)-2-Fluoro-4-(3-fluoro-4-(2-((2R)-2-hydroxy-7-azabicyclo[2.2.1]heptan-7-yl)acetyl)-2,5-dimethyl-1H-pyrrol-1-yl)benzonitrile]	> 7.30
Cc1nc(Cc2c(Br)c(C(=O)CN3C4CCC3[C@@H](O)C4)c(C)n2-c2ccc(C#N)cc2)cs1 (mixture of isomers) [Example 129B, (±)-4-(3-Bromo-4-(2-((2R)-2-hydroxy-7-azabicyclo[2.2.1]heptan-7-yl)acetyl)-5-methyl-2-((2-methylthiazol-4-yl)methyl)-1H-pyrrol-1-yl)benzonitrile]	6.30 to 7.30
Cc1cc(C(=O)CN2[C@@H]3CC[C@@H]2CC(O)C3)c(C)n1-c1ccc(C#N)cc1 (stereo partly drawn) [Example 66B, 4-(3-(2-((1R,3r,5S)-3-Hydroxy-8-azabicyclo[3.2.1]octan-8-yl)acetyl)-2,5-dimethyl-1H-pyrrol-1-yl)benzonitrile]	6.30 to 7.30
Cc1cc(C(=O)CN2[C@@H]3CC[C@@H]2CC(C)(O)C3)c(C)n1-c1ccc(C#N)cc1 (stereo partly drawn) [Example 68B, 4-(3-(2-((1R,3r,5S)-3-Hydroxy-3-methyl-8-azabicyclo[3.2.1]octan-8-yl)acetyl)-2,5-dimethyl-1H-pyrrol-1-yl)benzonitrile]	6.30 to 7.30
Cc1c(C(=O)CN2C3CCC2[C@@H](O)C3)c(Cl)c(CCCCC#N)n1-c1ccc(C#N)c(F)c1 (mixture of isomers) [Example 40B, (±)-4-(3-Chloro-2-(4-cyanobutyl)-4-(2-((2R)-2-hydroxy-7-azabicyclo[2.2.1]heptan-7-yl)acetyl)-5-methyl-1H-pyrrol-1-yl)-2-fluorobenzonitrile]	> 7.30
Cc1cc(C(=O)CN2C3CCC2[C@@H](CC(C)(C)O)C3)c(C)n1-c1ccc(C#N)cc1 (mixture of isomers) [Example 148B, (±)-4-(3-(2-((2S)-2-(2-Hydroxy-2-methylpropyl)-7-azabicyclo[2.2.1]heptan-7-yl)acetyl)-2,5-dimethyl-1H-pyrrol-1-yl)benzonitrile]	< 6.30
